Data published in the NIST ThermoML archive (doi:10.1016/j.jct.2013.02.023).
Numbers after ± are expanded uncertainties.

Experiment: molar heat capacity at constant pressure
Details: 101.33 kPa, relaxation calorimetry - Quantum Design PPMS

O=P([O-])([O-])OP(=O)([O-])[O-].O=P([O-])([O-])OP(=O)([O-])[O-].O=P([O-])([O-])OP(=O)([O-])[O-].[Fe+3].[Fe+3].[Fe+3].[Fe+3] [iron(III) diphosphate]
molar heat capacity at constant pressure [J/K/mol]
Details	Crystal 1	Crystal 2
45.43 K	–	122.94 ± 2.5
45.64 K	–	124.36 ± 2.5
45.84 K	–	125.76 ± 2.5
46.02 K	–	126.95 ± 2.5
46.22 K	–	128.47 ± 2.6
46.44 K	–	130.17 ± 2.6
46.64 K	–	131.93 ± 2.6
46.84 K	–	133.84 ± 2.7
47.05 K	–	135.68 ± 2.7
47.24 K	–	137.48 ± 2.8
47.38 K	–	138.74 ± 2.8
47.44 K	–	139.11 ± 2.8
47.58 K	–	139.19 ± 2.8
47.6 K	139.19 ± 3.4	139.19 ± 3.3
47.65 K	138.86 ± 2.9	–
47.77 K	136.97 ± 2.8	–
47.84 K	134.84 ± 2.8	–
47.97 K	130.03 ± 2.7	–
48.05 K	126.52 ± 2.6	–
48.16 K	121.47 ± 2.5	–
48.26 K	116.89 ± 2.4	–
48.36 K	112.95 ± 2.3	–
48.42 K	110.73 ± 2.3	–
48.55 K	107.38 ± 2.2	–
48.66 K	105.62 ± 2.2	–
48.76 K	103.95 ± 2.1	–
48.97 K	102.08 ± 2.1	–
49.16 K	101.07 ± 2	–
49.25 K	100.78 ± 2	–
49.37 K	100.37 ± 2	–
49.56 K	99.82 ± 2	–
49.74 K	99.5 ± 2	–
49.76 K	99.49 ± 2	–
49.97 K	99.12 ± 2	–
50 K	99.09 ± 2.2	–
50.16 K	98.85 ± 2	–
50.24 K	98.89 ± 2	–
50.37 K	98.71 ± 2	–
50.75 K	98.49 ± 2	–
51.26 K	98.47 ± 2	–
51.78 K	98.62 ± 2	–
52.26 K	99.14 ± 2	–
52.77 K	99.39 ± 2	–
53.27 K	99.87 ± 2	–
53.79 K	100.51 ± 2	–
53.8 K	100.65 ± 2	–
54.3 K	101.12 ± 2	–
54.8 K	101.89 ± 2	–
55 K	102.2 ± 2.2	–
55.3 K	102.66 ± 2	–
55.82 K	103.45 ± 2.1	–
56.32 K	104.29 ± 2.1	–
56.83 K	105.21 ± 2.1	–
57.33 K	106.12 ± 2.1	–
57.82 K	106.98 ± 2.1	–
58.35 K	107.99 ± 2.2	–
58.86 K	109.04 ± 2.2	–
59.33 K	110.07 ± 2.2	–
59.86 K	111.09 ± 2.2	–
60 K	111.36 ± 2.5	–
60.37 K	112.09 ± 2.2	–
61.22 K	114 ± 2.3	–
62.42 K	116.32 ± 2.3	–
63.41 K	118.45 ± 2.4	–
64.42 K	120.61 ± 2.4	–
65 K	121.89 ± 2.7	–
65.42 K	122.92 ± 2.5	–
66.42 K	124.93 ± 2.5	–
67.44 K	127.27 ± 2.5	–
68.45 K	129.47 ± 2.6	–
69.47 K	131.89 ± 2.6	–
70 K	133.03 ± 2.9	–
70.48 K	134.15 ± 2.7	–
71.49 K	136.51 ± 2.7	–
72.5 K	138.68 ± 2.8	–
73.5 K	141.06 ± 2.8	–
73.58 K	141.14 ± 2.8	–
74.51 K	143.36 ± 2.9	–
75 K	144.64 ± 3.2	–
75.53 K	145.73 ± 2.9	–
76.55 K	148.3 ± 3	–
77.56 K	150.74 ± 3	–
78.57 K	153.39 ± 3.1	–
79.58 K	155.6 ± 3.1	–
80 K	156.55 ± 3.4	–
80.59 K	158.26 ± 3.2	–
81.7 K	160.54 ± 3.2	–
85 K	168.61 ± 3.7	–
90 K	180.67 ± 4	–
90.71 K	182.62 ± 3.6	–
95 K	193.23 ± 4.2	–
100 K	205.34 ± 4.5	–
100.7 K	205.22 ± 4.1	–
110 K	227.92 ± 5	–
110.85 K	227.84 ± 4.6	–
120 K	248.76 ± 5.5	–
120.85 K	248.93 ± 5	–
130 K	268.26 ± 5.9	–
130.93 K	269.49 ± 5.4	–
140 K	286.79 ± 6.3	–
141.05 K	288.92 ± 5.8	–
150 K	304.56 ± 6.7	–
151.1 K	307 ± 6.1	–
160 K	321.72 ± 7.1	–
161.21 K	324.93 ± 6.5	–
170 K	338.34 ± 7.4	–
171.22 K	342.32 ± 6.8	–
180 K	354.45 ± 7.8	–
181.32 K	357.51 ± 7.2	–
190 K	370.05 ± 8.1	–
191.45 K	374.2 ± 7.5	–
200 K	385.13 ± 8.5	–
201.57 K	387.79 ± 7.8	–
210 K	399.67 ± 8.8	–
211.7 K	401.38 ± 8	–
220 K	413.65 ± 9.1	–
221.82 K	416.43 ± 8.3	–
230 K	427.07 ± 9.4	–
231.97 K	429 ± 8.6	–
240 K	439.91 ± 9.7	–
242.05 K	440.09 ± 8.8	–
250 K	452.18 ± 9.9	–
252.07 K	452.65 ± 9.1	–
260 K	463.87 ± 10	–
262.14 K	465.23 ± 9.3	–
270 K	475 ± 10	–
272.29 K	475.97 ± 9.5	–
273.15 K	478.39 ± 11	–
280 K	485.58 ± 11	–
282.37 K	488.57 ± 9.8	–
290 K	495.63 ± 11	–
292.36 K	498.4 ± 10	–
298.15 K	503.44 ± 11	–
300 K	505.16 ± 11	–
302.55 K	510.46 ± 10	–
